Reference: EP1087941B9, “THIOLESTERS AND USES THEREOF” (THE UNITED STATES OF AMERICA, as represented by THE …, priority 1998, dated 1999)
“Also recorded” adds a separate entry of the source. Read-outs that look alike come from different tables or passages of the source.

What was measured:
virus attachment = assay: Cell-based p24 attachment assay; settings: for IC50: Table 7, high dose test of 100 µM, read-out: Attachment I50
Method: (§1) The cell-based p24 attachment assay was performed as described in Rice (1995) Science 270:1194-1197. Viral inactivation assays were carried out as described in Rice (1995) Science 270:1194-1197, and Turpin (1997) supra, with minor modifications. Briefly, MAGI-CCR-5 cells were plated (4 x 10^4 cells per well) in flat bottomed 2-cm well plates for 24 h, after which the culture media was removed and compound-treated virus was added. The virus used was obtained by transient transfection of pNL4-3 into HeLa cells yielding the replication competent NL4-3 virus. Virus containing supernatants were treated for 2 h at 37°C after which residual compound was removed by centrifugation (18,000 x g, 1h, 4°C). Virus pellets were resuspended and placed on the MAGI-CCR-5 monolayers and cultured for 48 h. Monolayers were fixed and stained with X-gal solution and blue cells counted.

[1] = biological target: T1, Virion-associated NCp7 proteins from cell-free HIV-1MN (Human immunodeficiency virus type 1 group M subtype B, UniProt P05888); assay: Intravirion NCp7 cross-linking, non-reducing Western blotting
T1 construct: an attack on the mature NCp7 retroviral zinc fingers in the cell-free virus; endogenous in cells
Method: The interaction of zinc finger inhibitors, such as the thiolesters of the invention, with cell-free virus can result in modification of intravirion NCp7 protein and loss of infectivity. Virion-associated NCp7 proteins from cell-free HIV-1MN were treated with thiolester compounds 44 and 45. They were also evaluated by non-reducing Western blotting using HIV-1 NCp7-specific antibodies. […] Cross-linking by compound 45 was due to formation of intermolecular disulfide bonds because reduction with 2-mercaptoethanol (β-ME) completely reversed the gel retardation.
Virion cross linking was performed as described by Rice (1995) Science 270:1194-1197 and Turpin (1997) Antiviral Chem. Chemother. 8:60-67. Briefly, highly purified HIV-1 MN (11.8 µg total protein) was incubated for 2 hour with concentrations of compound. Virions were concentrated and residual compound was removed by centrifugation (18,000 x g, 1 h, 4°C). The viral pellet was solubilized in 0.5 M Tris-HCl,(pH 6.8), 50% glycerol, 8% SDS and 0.4% bromophenol blue and proteins resolved by Western blotting. Western blotting to detect the expression of HIV-1 proteins in U1 cells or virus pellets for virion cross-linking experiments was carried out as described by Turpin (1996) J. Virol. 70:6180-6189. Briefly, 50 µg of total cellular protein for U1 experiments or the total virion pellet (11.8 µg total viral protein) for NCp7 cross linking studies was resolved on 4 to 20% polyacrylamide gels in SDS with Tris-Glycine (Novex, San Diego CA). Samples for reduced gels were boiled for 5 min in the presence of 5% β-ME prior to loading. Resolved proteins were electroblotted on to polyvinylidene difluoride (PVDF) membranes, and HIV-1 specific proteins were detected using a mixture of goat anti- HIV-1 NCp7 and p24 or anti-NCp7 for virion proteins alone (a kind gift of L. E. Henderson, AIDS Vaccine Program NCI-FCRDC, Frederick, MD). Western blots were developed using standard chemiluminescence methodologies, as produced and described by Dupont-NEN, Wilmington, DE.
Purified concentrated retrovirus and antisera against the purified NC protein of the virus can be used to test the ability of a specific compound to penetrate the virus and react with the NC protein by forming disulfide complexes in the core of the virus. Compound are mixed with the whole retrovirus under reaction conditions appropriate for the compound. The virus is then removed from the reagent by centrifugation and disrupted in, e.g., standard SDS-PAGE sample buffer with (reduced) and without (non-reduced) 2-mercaptoethanol. […] Thus, compounds of interest (i.e., those which cause cross-linking), including the thiolesters of the invention, reduce the amount of monomeric zinc finger protein detected.

HIV-1 NL4-3 = assay: Virucidal (viral inactivation) assay on MAGI-CCR-5 cells; type: cell-based
Method: as §1
NCp7 cross-linking is associated with viral inactivation. Whether the ability to crosslink the nucleocapsid protein, as determined by Western blotting, correlated with the ability to inactivate the viruses was tested in a virucidal assay. Virus stocks of HIV-1 NL4-3 were incubated with various thiolester compounds. The virus was obtained by transient transfection of a replication-competent pNL4-3 plasmid into HeLa cells. Residual thiolester was removed by centrifugation. The virus pellet was resuspended in culture media and used to infect MAGI-CCR-5 cells. At 48 hours post-infection, the cells were washed and stained with X-Gal. Compounds 44 and 45 were virucidal with I50 (concentration resulting in 50% virus inactivation) values of 12.3 µM and 13.2 µM, respectively.

U1 cells = assay: Cell viability of TNFα-induced U1 cells; type: cell-based; settings: for cellular toxicity: high test dose of 100 µM; for toxicity: higher dose testing (300 µM)
Method: Thiolester compounds were also tested for their ability to inhibit HIV-1 replication in TNFα-induced U1 and ACH-2 cells. U1 cells were induced with 5 ng/ml of TNFα in the presence of various concentrations of the thiolesters 44, 45 or 47. Forty-eight hours later the cultures were characterized for virus p24 antigen production and cell viability. […] Compound 44 killed 60% of the cells at 200 µM. […] Precursor processing evaluation performed as described by Turpin (1997) Antiviral Chem. Chemother. 8:60-69. Thus, thiolester PATEs initiate intracellular disulfide cross-linking of precursor polyproteins during late phase virus assembly and mediate a direct virucidal effect via an attack on the mature NCp7 retroviral zinc fingers in the cell-free virus.

[2] = Human immunodeficiency virus 1, NL43, MAGI-CCR5, read-out: Virucidal Activity (I50 µM)
[3] = Human immunodeficiency virus 1, NL43, MAGI-CCR5, read-out: virucidal I50 (concentration resulting in 50% virus inactivation)

Structure (SMILES) | inhibition of virus attachment (virus attachment) | IC50 (virus attachment) | intravirion NCp7 cross-linking [1] | IC50 (HIV-1 NL4-3; [2]) | IC50 (HIV-1 NL4-3; [3]) | cells killed (U1 cells; at 200 µM) | cellular toxicity (U1 cells) | toxicity (U1 cells)
CC(=O)NS(=O)(=O)c1ccc(NC(=O)c2ccccc2SC(=O)CCCCBr)cc1 [Compound 44, N-[2-(5-bromovaleroylthio)benzoyl]sulfacetamide] | did not inhibit | > 100 µM | very poor cross-linking agent | 12.3 µM | 12.3 µM | 60% | No cellular toxicity was evident | 
CC(=O)NS(=O)(=O)c1ccc(NC(=O)c2ccccc2SC(=O)CCCC[n+]2ccccc2)cc1 [Compound 45, N-[2-(5-pyridinio-valeroylthio)benzoyl]sulfacetamide bromide] | did not inhibit | > 100 µM | extensive cross-linking of NCp7; also recorded: strong cross-linker of intravirion NCp7 | 13.2 µM | 13.2 µM |  | No cellular toxicity was evident | no toxicity
O=C(CCCC[n+]1ccccc1)Sc1ccccc1C(=O)Nc1ccc(S(=O)(=O)c2ccc([N+](=O)[O-])cc2)cc1 [Compound 47] | did not inhibit | > 100 µM | did not effectively initiate NCp7 cross-linking | 2.1 µM | 2.1 µM |  | No cellular toxicity was evident | no toxicity
